Measurements taken from US7687508B2, “Cyclic derivatives as modulators of chemokine receptor activity” (Bristol-Myers Squibb Company, priority 2006, dated 2010).

Legend:
human CCR2 [1] = target: T1, human CCR2 (Homo sapiens, UniProt P41597); test: Human peripheral blood mononuclear cell binding (CCR2 binding), 125I-human MCP-1 tracer; parameters: hPBMCs were isolated from human leukopak (Biological Specialty Inc.); endogenous in cells; host or cells: human peripheral blood mononuclear cells from leukopak (Biological Specialty Inc.); conditions: metabolite examples; hPBMCs, 125I-MCP-1; read-out: PBMC Binding IC50
T1 sequence (P41597 1-360 isoform P41597-2): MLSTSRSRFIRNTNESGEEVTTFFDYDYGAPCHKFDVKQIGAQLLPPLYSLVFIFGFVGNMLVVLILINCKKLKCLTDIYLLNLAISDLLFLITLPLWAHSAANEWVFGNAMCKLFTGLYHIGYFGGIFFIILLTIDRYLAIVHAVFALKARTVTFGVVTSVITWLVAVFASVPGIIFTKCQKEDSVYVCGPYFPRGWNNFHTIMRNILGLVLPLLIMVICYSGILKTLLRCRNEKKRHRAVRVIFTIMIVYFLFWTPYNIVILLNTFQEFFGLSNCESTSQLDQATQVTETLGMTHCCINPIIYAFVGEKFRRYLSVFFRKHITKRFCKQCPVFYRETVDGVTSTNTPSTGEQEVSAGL
Description: See also: Yoshimura et al., J. Immunol. 1990, 145, 292. The human CCR2 binding assay was established with human peripheral blood mononuclear cells (hPBMCs) using ^125I-human MCP-1 as the tracer ligand. hPBMCs were isolated from human leukopak (Biological Specialty Inc.) using a standard protocol with Ficoll-Hypaque (Mediatech Cellgro). Isolated hPBMCs were washed and diluted to 1×10^7/ml in binding buffer (RPMI-1640, 0.1% BSA, 20 mM Hepes, pH 7.4). ^125I-MCP-1 (NEN/Perk Elmer) was diluted to 0.45 nM in binding buffer. The compound was diluted in binding buffer at 3-fold the final concentrations used in the binding assay. The binding assay was performed using a 96-well filter plate (Millipore). Total ^125I-MCP-1 binding was assessed as follows: to each reaction of a total volume of 150 μl were added 5×10^5 cells, 0.15 nM […], and compound such that the final concentration ranged from 0 to 100 nM. The plate was incubated at room temperature for 30 minutes followed by three washes with RPMI-1640, 0.1% BSA, 0.4 M NaCl, 20 mM Hepes, pH 7.4 using a vacuum manifold filtration (Millipore). After washing, the plate was air-dried for 60 minutes at room temperature. This was followed by adding 25 μl of Microscint 20 into each well. The plate was sealed and counted on the Trilux for 1 minute. Non-specific binding was determined in the presence of 300 nM cold MCP-1 (PeproTech Inc.). Specific 1-MCP-1 was calculated as the difference between total and non-specific binding. All conditions were tested in duplicate.

human CCR2 [2] = target: T1, human CCR2; test: THP-1 binding (CCR2, 125I-human MCP-1 tracer); parameters: THP-1 human monocytic leukemic cell line, which expresses endogenous CCR2; endogenous in cells; host or cells: THP-1 human monocytic leukemia cells; conditions: metabolite examples; THP-1 cells, 125I-MCP-1
Description: The human CCR2 binding assay was also established with the THP-1 human monocytic leukemic cell line, which expresses endogenous CCR2, using 125I-human MCP-1 as the tracer ligand. Radioligand competition binding assays were used for assessment of binding affinity of test compounds to the CCR2 receptor. For radioligand competition studies, 100 μl containing 2.5×10^5 THP-1 cells/well (in assay buffer containing 50 mM HEPES, pH7.4, 5 mM MgCl2, 1 mM CaCl2 and 0.5% BSA) were added to 96-well assay plates containing test compound in 3-fold serial dilution, with final concentrations ranging from […]. Subsequently, 50 μl ^125I-MCP-1 radioligand at a final concentration of 0.2 nM in assay buffer were added to the reaction. After a 90 minute incubation period at room temperature, the binding reaction was terminated by harvesting on GF/B filter plates (PerkinElmer Cat. No. 6005177) followed by washing with ice-cold wash buffer (50 mM HEPES, pH 7.4, 0.1% BSA, 0.5 M NaCl) to remove unbound ligand. After washing, the plate was dried for 45 minutes at 60° C. followed by addition of 40 μl MicroScint 20 scintillation fluid, sealed and analyzed by the Packard TopCount reader. […] The competition data was plotted as a percentage inhibition of radioligand specific bound in the absence of test compound (percent of total signal). After correcting for non-specific binding, IC50 values were determined.

IC50 (human CCR2 [1]): 0.0149 ± 0.0052 µM | IC50 (human CCR2 [2]): 0.0199 µM
SMILES: CC(=O)N[C@@H]1C[C@H](NC(C)(C)C)CC[C@@H]1N1CC[C@H](Nc2nc[n+]([O-])c3ccc(C(F)(F)F)cc23)C1=O [Example 14, N-((1R,2S,5R)-5-(tert-butylamino)-2-((3S)-3-((1-oxido-6-(trifluoromethyl)-4-quinazolinyl)amino)-2-oxo-1-pyrrolidinyl)cyclohexyl)acetamide]
